Laboratory results: paper PMC10290043, “Pharmacokinetics, safety, and antitumor activity of talazoparib monotherapy in Chinese patients with advanced solid tumors” (Investigational New Drugs, 2023)
“Also recorded” adds a separate entry of the source.

Legend:
[1] = Safety: treatment-emergent adverse events, NCT04635631; format: in vivo, human; settings: for Any AE: safety population N=15, 1 mg QD
Text: AE reporting included data up to 28 days after last dose of study drug or to start of new anticancer drug therapy Day -1 (whichever came first). For AEs, Medical Dictionary for Regulatory Activities (MedDRA), version 24.0, coding was applied.
All patients who had received at least 1 dose of talazoparib were included in the safety and efficacy analysis sets. All treated patients with at least 1 PK concentration in the single-dose and/or multiple-dose PK part were included in the PK concentration analysis set, and all treated patients with at least 1 of the PK parameters of primary interest in the single-dose and/or multiple-dose PK part were included in the PK parameter analysis set. All patients in the PK parameter analysis set who completed both the single-dose PK and multiple-dose PK parts without major protocol deviations were included in the PK evaluable analysis set.

[2] = tested on: advanced breast cancer and a germline BRCA alteration; set-up: method as in PMID 30110579; settings: EMBRACA, cited from earlier work

SMILES: Cn1ncnc1[C@H]1c2n[nH]c(=O)c3cc(F)cc(c23)N[C@@H]1c1ccc(F)cc1 [talazoparib]
- Patients with 1 or more dose reduction due to treatment-related AEs ([1]; 3/15 patients): Twenty percent
- Any-grade treatment-related TEAE: anemia ([1]; N=15): 46.7%
- Any-grade treatment-related TEAE: decreased lymphocyte count ([1]; N=15): 33.3%
- Any-grade treatment-related TEAE: decreased neutrophil count ([1]; N=15): 46.7%
- Any-grade treatment-related TEAE: decreased platelet count ([1]; N=15): 33.3%
- Any-grade treatment-related TEAE: decreased white blood cell count ([1]; N=15): 46.7%
- Any-grade treatment-related TEAE: elevated alanine aminotransferase ([1]; N=15): 33.3%
- Any-grade treatment-related TEAE: elevated aspartate aminotransferase ([1]; N=15): 33.3%
- Patients permanently discontinued because of treatment-related decreased neutrophil count ([1]; N=15): 6.7%
- Patients with dose interruptions due to all-causality AEs ([1]; N=15): 20.0%
- Patients with dose interruptions due to treatment-related AEs ([1]; N=15): 13.3%
- Patients with grade 3 treatment-related TEAEs ([1]; N=15): 20%
- Patients with grade 4 treatment-related TEAEs ([1]; N=15): 13.3%
- Patients with serious all-causality TEAEs ([1]; N=15): 13.3%
- Patients with serious treatment-related TEAEs ([1]; N=15): 13.3%
- Treatment-related grade 3 or 4 TEAE: decreased neutrophil count ([1]; N=15): 20%
- Treatment-related grade 3 or 4 TEAE: decreased platelet count ([1]; N=15): 20%
- Patients with grade 3–4 treatment-related AEs ([1]; N=15, in words): One-third
- Treatment-related grade 3 or 4 TEAE: anemia ([1]; N=15, no grade 4): 20%
- Treatment-related grade 3 or 4 TEAE: hyponatremia ([1]; N=15, no grade 4): 6.7%
- Treatment-related grade 3 or 4 TEAE: neutropenia ([1]; N=15, no grade 4): 6.7%
- Grade 5 TEAEs ([1]; all-causality or treatment-related, N=15): No grade 5 all-causality or treatment-related TEAEs; also recorded: no grade 5 TEAEs
- AEs leading to discontinuation ([1]; all-causality, N=15): 1 (6.7) n (%)
- AEs leading to dose interruption ([1]; all-causality, N=15): 3 (20.0) n (%)
- AEs leading to dose reduction ([1]; all-causality, N=15): 3 (20.0) n (%)
- Grade 3 or 4 AE ([1]; all-causality, N=15): 9 (60.0) n (%)
- Grade 3 or 4 AE: Anemia ([1]; all-causality, N=15): 3 (20.0) n (%)
- Grade 3 or 4 AE: Gamma-glutamyltransferase increased ([1]; all-causality, N=15): 4 (26.7%) n (%)
- Grade 3 or 4 AE: Neutrophil count decreased ([1]; all-causality, N=15): 3 (20.0) n (%)
- Grade 3 or 4 AE: Platelet count decreased ([1]; all-causality, N=15): 3 (20.0) n (%)
- Grade 5 AE (Death due to AE) ([1]; all-causality, N=15): 0 n (%)
- Patients with any SAE ([1]; all-causality, N=15): 2 (13.3) n (%)
- SAE: Anemia ([1]; all-causality, N=15): 1 (6.7) n (%)
- SAE: Hypernatremia ([1]; all-causality, N=15): 1 (6.7) n (%)
- SAE: Hyponatremia ([1]; all-causality, N=15): 1 (6.7) n (%)
- SAE: Neutrophil count decreased ([1]; all-causality, N=15): 1 (6.7) n (%)
- SAE: Platelet count decreased ([1]; all-causality, N=15): 1 (6.7) n (%)
- Any AE ([1]; all-causality): 14 (93.3) n (%)
- Patients with all-causality TEAEs ([1]; safety population N=15): 93.3%
- Patients with treatment-related TEAEs ([1]; safety population N=15): 86.7%
- AEs leading to discontinuation ([1]; treatment-related, N=15): 1 (6.7) n (%)
- AEs leading to dose interruption ([1]; treatment-related, N=15): 2 (13.3) n (%)
- AEs leading to dose reduction ([1]; treatment-related, N=15): 3 (20.0) n (%)
- Grade 3 or 4 AE ([1]; treatment-related, N=15): 5 (33.3) n (%)
- Grade 3 or 4 AE: Anemia ([1]; treatment-related, N=15): 3 (20.0) n (%)
- Grade 3 or 4 AE: Gamma-glutamyltransferase increased ([1]; treatment-related, N=15): 0 n (%)
- Grade 3 or 4 AE: Neutrophil count decreased ([1]; treatment-related, N=15): 3 (20.0) n (%)
- Grade 3 or 4 AE: Platelet count decreased ([1]; treatment-related, N=15): 3 (20.0) n (%)
- Grade 5 AE (Death due to AE) ([1]; treatment-related, N=15): 0 n (%)
- Patients with any SAE ([1]; treatment-related, N=15): 2 (13.3) n (%)
- SAE: Anemia ([1]; treatment-related, N=15): 1 (6.7) n (%)
- SAE: Hypernatremia ([1]; treatment-related, N=15): 0 n (%)
- SAE: Hyponatremia ([1]; treatment-related, N=15): 1 (6.7) n (%)
- SAE: Neutrophil count decreased ([1]; treatment-related, N=15): 1 (6.7) n (%)
- SAE: Platelet count decreased ([1]; treatment-related, N=15): 1 (6.7) n (%)
- Any AE ([1]; treatment-related): 13 (86.7) n (%)
- Hazard ratio for disease progression or death ([2]; versus standard chemotherapy, 95% CI 0.41–0.71, P < 0.001): 0.54
- Median progression-free survival ([2]; vs 5.6 months standard chemotherapy): 8.6 months
